Results on six compounds are retold here after EPA's ToxRefDB 2.

Where only a bound is given, the exact number is not on record here.

The test system of data set [1] is rat. Particulars: Subchronic oral toxicity in rodents, other, Feed, dose end: 90 day, group: systemic.
Data set [2] has as its system rat. The settings on record: Fertility (Segment I), sprague dawley, Oral, Gavage/Intubation, dose end: 7 PND.
For data set [3], the system named is rat. The settings on record: Sub-acute repeat dose toxicity, sprague dawley, Oral, Gavage/Intubation, dose end: 1 month, group: systemic.
The test system of data set [4] is rat. Particulars: Prenatal developmental toxicity study, sprague dawley, Oral, Gavage/Intubation, dose end: 17 GD.
The subject of data set [5] is dog. The settings on record: Sub-acute repeat dose toxicity; beagle; Oral; Gavage/Intubation; dose end: 1 month; group: systemic; systemic / in life observation / clinical signs / external lesion(s) + systemic / in life observation / clinical signs / reactivity to ….
For a further data set, the system named is rabbit. The settings on record: Prenatal developmental toxicity study, new zealand white, Oral, Gavage/Intubation, dose end: 19 GD.
Data set [6] concerns rat. Particulars: Prenatal developmental toxicity study, sprague dawley, Oral, Gavage/Intubation, dose end: 17 GD. The source holds these as a separate data set.
In data set [7] the test system is rat. Particulars: Multigenerational reproductive toxicity study; sprague dawley; Oral; Gavage/Intubation; dose end: 17 GD; group: parental; systemic / in life observation / body weight / body weight + systemic / in life observation / food consumption / food consumption + systemic….
In data set [8] the test system is rat. The settings on record: Sub-acute repeat dose toxicity, sprague dawley, Oral, Gavage/Intubation, dose end: 1 month, group: systemic. This is another data set of the same source.
Data set [9] relates to rat. The settings on record: Subchronic oral toxicity in rodents, fischer, Feed, dose end: 90 day, group: systemic, systemic / in life observation / body weight / body weight gain + systemic / pathology microscopic / kidney / calculus + systemic / ….
The test system of data set [10] is mouse. The settings on record: Carcinogenicity, b6c3f1, Oral, Feed, dose end: 103 week, group: systemic.
For data set [11], the system named is mouse. Particulars: Subchronic oral toxicity in rodents, b6c3f1, Feed, dose end: 13 week, group: systemic.
The test system of data set [12] is rat. The settings on record: Carcinogenicity, fischer, Oral, Feed, dose end: 103 week, group: systemic.
In data set [13] the test system is rat. Particulars: Subchronic oral toxicity in rodents, fischer, Feed, dose end: 13 week, group: systemic.
Data set [14] concerns mouse. The settings on record: Subchronic oral toxicity in rodents, b6c3f1, Feed, dose end: 90 day, group: systemic.
Data set [15] has as its system mouse. The settings on record: Carcinogenicity, b6c3f1, Oral, Feed, dose end: 78 week, group: systemic.
In data set [16] the test system is rat. Particulars: Carcinogenicity, fischer, Oral, Feed, dose end: 78 week, group: systemic.
Data set [17] concerns dog. The settings on record: Sub-acute repeat dose toxicity, beagle, Oral, Gavage/Intubation, dose end: 7 day, group: systemic.
Data set [18] deals with dog. The settings on record: Sub-acute repeat dose toxicity, beagle, Oral, Gavage/Intubation, dose end: 5 day, group: systemic.
For data set [19], the system named is rat. The settings on record: Sub-acute repeat dose toxicity, sprague dawley, Oral, Gavage/Intubation, dose end: 5 day, group: systemic.
Where [20] appears, read: systemic / hematology / erythrocyte (rbc) count differential / erythrocyte (rbc) + systemic / hematology / hemoglobin (hgb) / hemoglobin (….
Setting [21] is: group: maternal, reproductive / reproductive performance / estrous cycle / abnormal + reproductive / reproductive performance / estrous cycle / corpora lutea….
Where [22] appears, read: group: parental, systemic / in life observation / body weight / body weight gain + systemic / in life observation / clinical signs / salivation + systemic / ….
[23] abbreviates: group: parental, systemic / in life observation / clinical signs / salivation.
[24] abbreviates: systemic / in life observation / body weight / body weight + systemic / in life observation / body weight / body weight gain + systemic / in….
The mark [25] stands for this setting: systemic / in life observation / clinical signs / body temperature.
[26] abbreviates: group: developmental, systemic / in life observation / body weight / fetal weight.
Setting [27] is: group: maternal, systemic / in life observation / body weight / body weight gain + systemic / in life observation / clinical signs / body cold to touch + ….
Where [28] appears, read: group: maternal, reproductive / reproductive performance / aborted / aborted + reproductive / reproductive performance / postimplantation loss / ….
Setting [29] is: group: maternal, reproductive / reproductive performance / aborted / aborted + systemic / in life observation / clinical signs / body temperature + systemic….
The mark [30] stands for this setting: group: developmental, developmental / developmental malformation / bone / [other] + developmental / developmental malformation / bone / absent + developmental / ….
[31] abbreviates: group: maternal, reproductive / reproductive performance / postimplantation loss / postimplantation loss + reproductive / reproductive performance / ….
Setting [32] is: group: maternal, systemic / in life observation / body weight / body weight gain + systemic / in life observation / food consumption / food consumption.
Where [33] appears, read: systemic / clinical chemistry / cholesterol / cholesterol + systemic / organ weight / liver / absolute + systemic / organ weight / liver / ….
The mark [34] stands for this setting: systemic / pathology microscopic / liver / arteritis + systemic / pathology microscopic / liver / degeneration.
Where [35] appears, read: systemic / in life observation / body weight / body weight gain.
The mark [36] stands for this setting: systemic / in life observation / body weight / body weight gain + systemic / pathology microscopic / harderian gland / adenoma + systemic / ….
[37] abbreviates: systemic / in life observation / body weight / body weight gain + systemic / pathology gross / thyroid gland / enlarged.
Setting [38] is: systemic / in life observation / body weight / body weight gain + systemic / pathology gross / thyroid gland / enlarged + systemic / ….
Setting [39] is: systemic / pathology microscopic / thyroid gland / hyperplasia.
The mark [40] stands for this setting: systemic / in life observation / body weight / body weight gain + systemic / pathology microscopic / thyroid gland / hyperplasia + systemic….
Setting [41] is: systemic / in life observation / body weight / body weight.
Setting [42] is: systemic / in life observation / body weight / body weight + systemic / pathology microscopic / liver / adenoma/carcinoma combined + ….
Setting [43] is: systemic / in life observation / clinical signs / erythema + systemic / in life observation / clinical signs / prostration + systemic / in ….
Setting [44] is: systemic / in life observation / clinical signs / erythema + systemic / in life observation / clinical signs / salivation.
Where [45] appears, read: systemic / in life observation / clinical signs / abnormal feces.
The mark [46] stands for this setting: systemic / in life observation / clinical signs / abnormal feces + systemic / in life observation / clinical signs / emesis.
Setting [47] is: systemic / in life observation / body weight / body weight + systemic / in life observation / clinical signs / [other] + systemic / in life ….
The mark [48] stands for this setting: systemic / in life observation / body weight / body weight + systemic / in life observation / food consumption / food consumption + systemic….

In general, LOAEL refers to the lowest dose or exposure tested at which an adverse effect was seen. As usually defined, the NOAEL is the highest tested level that showed no adverse finding.

As for `CNc1ccccc1C(=O)OC` [Methyl 2-(methylamino)benzoate], in the data set on rat [1] (setting [20]), the lowest observed adverse effect level (LOAEL) is greater than 244 mg/kg/day, the NEL was determined as 21 mg/kg/day and the NOAEL was no less than 244 mg/kg/day. The LEL in the data set on rat [1] (systemic / hematology / leukocyte (wbc) count differential / leukocyte (wbc) + systemic / organ weight / kidney / absolute + systemic / …) is 82 mg/kg/day.

`O=C(Nc1ccc2[nH]ccc2c1)c1cc2cc(F)ccc2n1Cc1cccc(F)c1`: the LEL was determined as 6 mg/kg/day in the data set with rat [2] (setting [21]); 1 mg/kg/day with rat [2] (setting [23]); 2 mg/kg/day in the data set with rat [3] (setting [25]); 10 mg/kg/day in the data set with rat [4] (setting [26]); 10 mg/kg/day with rat [4] (setting [27]); 0.05 mg/kg/day in the data set with dog [5]. Also, the LEL with rabbit (setting [26]) stood at 5 mg/kg/day; with rabbit (setting [29]), 5 mg/kg/day; in the data set with rat [6] (setting [30]), 6 mg/kg/day; in the data set with rat [6] (setting [32]) it was 1 mg/kg/day. The LOAEL with rat [2] (setting [21]) was 6 mg/kg/day; in the data set on rat [2] (setting [22]) it was 6 mg/kg/day; with rat [3] (setting [24]), 100 mg/kg/day; in the data set with rat [4] (setting [26]), greater than 400 mg/kg/day; with rat [4] (setting [27]), greater than 400 mg/kg/day; in the data set on dog [5] it was greater than 1 mg/kg/day. For the same compound, the LOAEL is greater than 900 mg/kg/day with rabbit (setting [26]), greater than 900 mg/kg/day with rabbit (setting [28]), 6 mg/kg/day in the data set on rat [6] (setting [30]) and 6 mg/kg/day in the data set with rat [6] (setting [31]). Besides, the NEL in the data set with rat [2] (setting [21]) is 1 mg/kg/day; with rat [2] (setting [23]), less than 1 mg/kg/day; with rat [3] (setting [25]), less than 2 mg/kg/day; in the data set on rat [4] (setting [26]), less than 10 mg/kg/day; in the data set with rat [4] (setting [27]) it was less than 10 mg/kg/day; in the data set on dog [5] it was less than 0.05 mg/kg/day. Besides, the NEL in the data set on rabbit (setting [26]) is less than 5 mg/kg/day; in the data set on rabbit (setting [29]), less than 5 mg/kg/day; in the data set with rat [6] (setting [30]) it was 1 mg/kg/day; in the data set on rat [6] (setting [32]), less than 1 mg/kg/day. Besides, the no observed adverse effect level (NOAEL) is 1 mg/kg/day in the data set on rat [2] (setting [21]); 1 mg/kg/day in the data set on rat [2] (setting [22]); 2 mg/kg/day with rat [3] (setting [24]); no less than 400 mg/kg/day with rat [4] (setting [26]); no less than 400 mg/kg/day in the data set on rat [4] (setting [27]); no less than 1 mg/kg/day with dog [5]. In addition, the NOAEL in the data set with rabbit (setting [26]) is no less than 900 mg/kg/day; in the data set on rabbit (setting [28]), no less than 900 mg/kg/day; with rat [6] (setting [30]), 1 mg/kg/day; with rat [6] (setting [31]) it was 1 mg/kg/day.

As for `NC(=O)N(O)[C@@H]1COc2cc(OCc3ccccc3)ccc21`, in the data set on rat [7], the LEL came to 1000 mg/kg/day, the LOAEL was greater than 1000 mg/kg/day, the NEL came to 100 mg/kg/day and the NOAEL is no less than 1000 mg/kg/day. In the data set on rat [8] (setting [33]), the LOAEL is greater than 1000 mg/kg/day and the NOAEL is no less than 1000 mg/kg/day. For the same compound, in the data set on rat [8] (setting [34]), the LEL came to 100 mg/kg/day and the NEL was less than 100 mg/kg/day.

As to `Nc1ccc(Oc2ccc(N)cc2)cc1` [4,4'-Oxydianiline], the LEL in the data set with rat [9] was 30 mg/kg/day; in the data set with mouse [10] (setting [36]), 22.5 mg/kg/day; in the data set with mouse [11] (systemic / in life observation / body weight / body weight + systemic / in life observation / body weight / body weight gain + systemic / …) it was 138 mg/kg/day; in the data set on rat [12] (setting [38]) it was 10 mg/kg/day; with rat [13] (setting [39]), 27 mg/kg/day; in the data set on mouse [14] (setting [35]) it was 45 mg/kg/day. In addition, the LOAEL with rat [9] was 30 mg/kg/day; in the data set on mouse [10] (setting [35]), 22.5 mg/kg/day; in the data set on mouse [11] (setting [24]) it was greater than 557 mg/kg/day; with rat [12] (setting [37]), 10 mg/kg/day; in the data set with rat [13] (setting [24]), greater than 168 mg/kg/day; in the data set with mouse [14] (setting [40]), 90 mg/kg/day. The NEL is 15 mg/kg/day with rat [9]; less than 22.5 mg/kg/day in the data set on mouse [10] (setting [36]); 68 mg/kg/day with mouse [11] (setting [24]); less than 10 mg/kg/day in the data set with rat [12] (setting [38]); less than 27 mg/kg/day in the data set with rat [13] (setting [39]); less than 45 mg/kg/day in the data set with mouse [14] (setting [35]). In addition, the NOAEL in the data set with rat [9] was 15 mg/kg/day; with mouse [10] (setting [35]), less than 22.5 mg/kg/day; in the data set with mouse [11] (setting [24]), no less than 557 mg/kg/day; with rat [12] (setting [37]) it was less than 10 mg/kg/day; with rat [13] (setting [24]) it was no less than 168 mg/kg/day; with mouse [14] (setting [40]), 45 mg/kg/day.

Turning to `CN(C)c1ccc(C(=O)c2ccc(N(C)C)cc2)cc1` [Michler's ketone], in the data set on mouse [15] (setting [41]), the LOAEL was determined as 188 mg/kg/day and the no-observed-adverse-effect level (NOAEL) was less than 188 mg/kg/day. Besides, in the data set with mouse [15] (setting [42]), the LEL was determined as 188 mg/kg/day and the NEL was less than 188 mg/kg/day. For the same compound, in the data set with rat [16] (setting [41]), the LOAEL was determined as 12.5 mg/kg/day and the NOAEL was less than 12.5 mg/kg/day. Further, in the data set with rat [16] (setting [42]), the LEL was determined as 12.5 mg/kg/day and the NEL is less than 12.5 mg/kg/day.

Regarding `COc1ccc(NC(=O)c2c[nH]c3c2C(=O)CCCC3)c(F)c1`, the LOAEL was greater than 250 mg/kg/day in the data set with dog [17] (setting [43]), greater than 100 mg/kg/day with dog [18] (setting [45]) and greater than 250 mg/kg/day in the data set on rat [19] (setting [47]). Besides, the no-observed-adverse-effect level (NOAEL) with dog [17] (setting [43]) was no less than 250 mg/kg/day; in the data set with dog [18] (setting [45]) it was no less than 100 mg/kg/day; in the data set on rat [19] (setting [47]), no less than 250 mg/kg/day. In addition, the LEL in the data set on dog [17] (setting [44]) was found to be 10 mg/kg/day; in the data set on dog [18] (setting [46]), 5 mg/kg/day; with rat [19] (setting [48]), 25 mg/kg/day. For the same compound, the NEL in the data set on dog [17] (setting [44]) is less than 10 mg/kg/day; in the data set on dog [18] (setting [46]), less than 5 mg/kg/day; with rat [19] (setting [48]), less than 25 mg/kg/day.
